{"source": "patent US8057790B2", "about": "“Treatment of malodour” (Blis Technologies Limited, priority 2003, dated 2011)", "key": {"halitosis subjects [1]": {"tested_on": "halitosis subjects", "experiment": "Organoleptic assessment of subjects' saliva", "assay_type": "in vivo, human", "conditions": "three recalled subjects; 3-day CHX regimen only; seventh day; scale of 0-5", "text": "Sixty-five subjects were screened for volatile sulphur compound (VSC) breath readings by halimeter (Interscan Corp., Chatsworth, Calif.). VSC readings in persons with normal breath are typically in the range of 80-150 ppb. At levels of 200-300 ppb oral malodor is noticeable by an observer standing close to the patient. At 350-400 ppb, the odour is noticeable by an observer standing several feet away from the patient. Those subjects with breath scores of greater than 200 ppb on two separate visits were recruited for the study (n=13). Each signed an Informed Consent under a protocol approved by the Otago Ethics Committee. Subject's upon their second positive visit undertook a mechanical and chemical treatment of their mouths at the laboratory. […]\nFresh saliva samples and tongue swabs were tested for N-benzoyl-DL-arginine-2-naphthylamide (BANA) hydrolysis (BANAMet ILC, Ann Arbor, Mich.), since positive scores by the BANA test have previously been associated with the presence of malodour-forming enzyme activities of certain oral bacterial species (1, 3). […] The samples were graded according to the same criteria used to assess breath air of halitosis sufferers (7), using a scale of 0-5, with 0 equating to no odour detected and 5 the most severe."}, "halitosis subjects [2]": {"tested_on": "halitosis subjects", "experiment": "Volatile sulphur compound (VSC) breath readings by halimeter in halitosis subjects", "assay_type": "in vivo, human", "conditions": "three recalled subjects", "text": "Sixty-five subjects were screened for volatile sulphur compound (VSC) breath readings by halimeter (Interscan Corp., Chatsworth, Calif.). VSC readings in persons with normal breath are typically in the range of 80-150 ppb. At levels of 200-300 ppb oral malodor is noticeable by an observer standing close to the patient. At 350-400 ppb, the odour is noticeable by an observer standing several feet away from the patient. Those subjects with breath scores of greater than 200 ppb on two separate visits were recruited for the study (n=13). Each signed an Informed Consent under a protocol approved by the Otago Ethics Committee. Subject's upon their second positive visit undertook a mechanical and chemical treatment of their mouths at the laboratory. This consisted of teeth and tongue brushing (2 minutes with Colgate Total™ [0.3% w/v triclosan], Colgate-Palmolive, N.Y., USA), tongue scraping for 30 seconds, brushing teeth and tongue with a CHX gel (Colgate, Australia) (Perioguard 2.0% CHX mouth gel, 2 minutes) and followed by a 30 second CHX rinse (0.2% CHX, 10% ethanol alcohol). This was followed at intervals by the sucking of a lozenge (BLIS Technologies Limited, Wellington, New Zealand) (commencing 2 hours after treatment and typically 2 hours apart, 4 times daily), each containing>1×10^9 colony forming units of streptomycin-resistant S. salivarius K12. […]"}}, "note": "Values joined by “and” are separate entries in the source; they are usually repeats but may differ in a detail not shown here. Identical values can stand only once."}
{"compound": "[H]/N=C(\\N/C(=N/[H])NCCCCCCNC(=N)NC(=N)Nc1ccc(Cl)cc1)Nc1ccc(Cl)cc1", "note": "[CHX, chlorhexidine]", "values": [{"measurement": "Post CHX treatment Saliva organoleptic", "setting": "halitosis subjects [1]", "value": "2 and 3"}, {"measurement": "change in VSC, organoleptic or BANA readings after treatment with CHX only", "setting": "halitosis subjects [2]", "value": "no decrease"}]}
